US10766862B2, “Crystal form and salt form of and preparation method for tyrosine kinase inhibitor” (GUANGDONG RAYNOVENT BIOTECH CO., LTD., priority 2016, dated 2020)
In brackets after ≈: the same amount, converted by molar mass.

How the values were obtained:
[1] = Test of solubility of crystal form A and its salts in four medias (HPLC, 24 hr); settings: for Solubility (ug/mL)_24 hr: 24 hr stirring; for pH (24 hr): supernatant
Protocol: (§1) Preparation of Control Solution (Crystal Form a as Control Sample)
(§2) Crystal form A was accurately weighed and added into a sample vial. 10 mL of acetonitrile was added, and subject to ultrasonic treatment for 5 min. The mixture was cooled to room temperature, and mixed homogeneously. Two aliquots were formulated in parallel, and labelled as STD-1 and STD-2, respectively.
Preparation of Linear Solution
(§3) The control solution STD-1 was gradually diluted 1×, 5×, 10×, 100×, and 1000×, and labelled as the linear solutions L1, L2, L3, L4, L5.
(§4) Test of Solubility of Crystal Form a and its Salts
(§5) The crystal form A and its salts were tested for their solubility in medias at 4 different pH values. About 10 mg of free base (10.8 mg of hydrochloride, 12.1 mg of methane sulfonate) was added into a glass vial. Four aliquots were weighed, 5.0 mL of individual media (water, SGF, FaSSIF, FeSSIF*) was added to each aliquot, respectively. The mixture was mixed homogeneously to for a suspension. A magnet was placed into the suspension, which was placed on a magnetic stirred for stirring. After 24 hours of stirred, a sample was taken and centrifugalized. The supernatant was detected by HPLC for its concentration and pH value.

[2] = Test of solid stability of crystal forms F, K and L; format: physicochemical
Protocol: Test of Solid Stability of Crystal Form F (Hydrochloride), Crystal Form K (Methane Sulfonate) and Crystal Form L (Methane Sulfonate) […] About 5 mg of each crystal form was accurately weighed and placed in a glass vial. Two aliquots were taken as the sample for test under each condition and at each time point. One aliquot was taken as the sample for XRPD test under each condition and at each time point. The vials containing sample were sealed with aluminum foil, and the foil was pierced to form some holes thereon. Then, the samples were placed in constant temperature & humidity chambers under the conditions of 60° C./92.5% RH and 40° C./75% RH. [table] 2. Analysis of Sample of Solid Stability At the tested time point, the sample was taken out, capped, and stood to room temperature. […] Diluent: an aqueous solution of methanol-0.04% TFA (90:10, v:v) Mobile phase A: 0.04% aqueous solution of TFA Mobile phase B: Acetonitrile as mobile phase B. Crystal form F (hydrochloride): To each sample was added 18 mL of the diluent (to the sample at Day 0 was added 20 mL of the diluent). The mixture was subject to ultrasonic treatment for 2 min, and mixed homogeneously for use as the sample solution. Crystal forms K and L (methane sulfonate): To each sample was added 15 mL of the diluent. The mixture was subject to ultrasonic treatment for 2 min, and mixed homogeneously for use as the sample solution. NOTE: All the sample solutions were injected for analysis immediately after formulation. Once the HPLC system was stable, the sample was injected for analysis.

physchem = settings: FeSSIF, pH 4.89, fessif, thermodynamic from solid
Protocol: as §1, §2
Preparation of Linear Solution
as §3, §4, §5

A549 Transplant Model = assay: Analysis of tumor growth inhibition (TGI), A549 transplant model; format: in vivo; settings: mice, QD
Protocol: The development and growth of tumors are evaluated by the relation between the tumor volume and time. The long axis (L) and the short axis (W) are measured with caliper twice per week. The tumor volume (TV) is calculated in accordance with the formula of (L×W^2)/2. TGI is calculated from the difference between the median tumor volume of mice of the solvent group and the median tumor volume of mice of the administration group, and expressed as a percentage relative to the median tumor volume of the solvent group.
It is calculated from the equation of: % TGH(Median Tumor Volume (Control Group) Median Tumor Volume (Administration Group))/Median Tumor Volume (Control Group))×100%
The initial statistical analysis is carried out by repeated variance analyses. Next, multiple comparisons are made by Scheffe psot hoc test method. A solvent (aqueous solution containing 0.5% of methylcellulose and 0.2% Tween) alone is used as negative control.

[3] = 40° C./75% RH, Day 5, sum of impurities > 0.02%
[4] = 60° C., Day 5, sum of impurities > 0.02%
[5] = 92.5% RH, Day 5, sum of impurities > 0.02%
[6] = -20° C., Day 0 (control per se), Table 17
[7] = -20° C., Day 0, sum of impurities > 0.02%
[8] = FaSSIF (pH 6.48), listed as Hydrochloride Crystal form F
[9] = Water (pH 6.33), listed as Hydrochloride Crystal form F
[10] = FaSSIF (pH 6.48), listed as Methane sulfonate Crystal form K
[11] = Water (pH 6.33), listed as Methane sulfonate Crystal form K

Compound: COc1cc2nccc(Oc3ccc(NC(=S)NC4CC4)c(Cl)c3F)c2cc1C(N)=O [Crystal form A]
- Solubility (ug/mL)_24 hr ([1]; FaSSIF (pH 6.48)): 2.62 µg/mL
- Solubility (ug/mL)_24 hr ([1]; SGF (pH 1.72), methane sulfonate loaded to 10 mg/mL of free base): 692.77 µg/mL
- Solubility (ug/mL)_24 hr ([1]; Water (pH 6.33)): 2.38 µg/mL
- pH (24 hr) ([1]; FaSSIF (pH 6.48)): 6.18
- pH (24 hr) ([1]; FeSSIF (pH 4.89)): 4.98
- pH (24 hr) ([1]; SGF (pH 1.72)): 1.97
- pH (24 hr) ([1]; Water (pH 6.33)): 7.16

Compound: COc1cc2nccc(Oc3ccc(NC(=S)NC4CC4)c(Cl)c3F)c2cc1C(N)=O [Crystal form F]
- Content (%) ([2]; 40° C./75% RH, Day 5, Table 17): 100.5%
- Total impurity (%) [2, 3]: 4.94%
- Content (%) ([2]; 60° C., Day 5, Table 17): 99.6%
- Total impurity (%) [2, 4]: 4.86%
- Content (%) ([2]; 92.5% RH, Day 5, Table 17): 100.3%
- Total impurity (%) [2, 5]: 4.52%
- Content (%) [2, 6]: 100.0%
- Total impurity (%) [2, 7]: 4.66%
- Solubility (ug/mL)_24 hr [1, 8]: 64.32 µg/mL
- Solubility (ug/mL)_24 hr ([1]; SGF (pH 1.72), methane sulfonate loaded to 10 mg/mL of free base, listed as Hydrochloride Crystal form F): 1217.07 µg/mL
- Solubility (ug/mL)_24 hr [1, 9]: 319.05 µg/mL
- pH (24 hr) [1, 8]: 3.73
- pH (24 hr) ([1]; FeSSIF (pH 4.89), listed as Hydrochloride Crystal form F): 4.89
- pH (24 hr) ([1]; SGF (pH 1.72), listed as Hydrochloride Crystal form F): 1.80
- pH (24 hr) [1, 9]: 2.56
- solubility at 24 h (physchem): 70.1 µg/mL (≈ 152 µM)

Compound: COc1cc2nccc(Oc3ccc(NC(=S)NC4CC4)c(Cl)c3F)c2cc1C(N)=O [Crystal form K]
- Content (%) ([2]; 40° C./75% RH, Day 5, Table 17): 98.5%
- Total impurity (%) [2, 3]: 5.32%
- Content (%) ([2]; 40° C./75% RH, Day 10, Table 17): 101.7%
- Total impurity (%) ([2]; 40° C./75% RH, Day 10, sum of impurities > 0.02%): 5.62%
- Content (%) ([2]; 60° C., Day 5, Table 17): 94.6%
- Total impurity (%) [2, 4]: 9.33%
- Content (%) ([2]; 60° C., Day 10, Table 17): 93.9%
- Total impurity (%) ([2]; 60° C., Day 10, sum of impurities > 0.02%): 8.94%
- Content (%) ([2]; 92.5% RH, Day 5, Table 17): 99.3%
- Total impurity (%) [2, 5]: 5.16%
- Content (%) ([2]; 92.5% RH, Day 10, Table 17): 99.5%
- Total impurity (%) ([2]; 92.5% RH, Day 10, sum of impurities > 0.02%): 4.87%
- Content (%) [2, 6]: 100.0%
- Total impurity (%) [2, 7]: 5.20%
- Solubility (ug/mL)_24 hr [1, 10]: 38.04 µg/mL
- Solubility (ug/mL)_24 hr ([1]; SGF (pH 1.72), methane sulfonate loaded to 10 mg/mL of free base, listed as Methane sulfonate Crystal form K): 6601.59 µg/mL
- Solubility (ug/mL)_24 hr [1, 11]: 329.78 µg/mL
- pH (24 hr) [1, 10]: 3.92
- pH (24 hr) ([1]; FeSSIF (pH 4.89), listed as Methane sulfonate Crystal form K): 4.88
- pH (24 hr) ([1]; SGF (pH 1.72), listed as Methane sulfonate Crystal form K): 1.76
- pH (24 hr) [1, 11]: 2.53

Compound: COc1cc2nccc(Oc3ccc(NC(=S)NC4CC4)c(Cl)c3F)c2cc1C(N)=O [Crystal form L]
- TGI % (Last Administration) (A549 Transplant Model; 50 mg/kg): 82%
- TGI % (Last Administration) (A549 Transplant Model; 100 mg/kg): 90%
- TGI % (Last Administration) (A549 Transplant Model; 200 mg/kg): 91%
- Content (%) ([2]; 40° C./75% RH, Day 30, Table 18): 99.4%
- Total impurity (%) ([2]; 40° C./75% RH, Day 30, sum of impurities > 0.05%): 0.9%
- Content (%) ([2]; 40° C./75% RH, Day 60, Table 18): 99.9%
- Total impurity (%) ([2]; 40° C./75% RH, Day 60, sum of impurities > 0.05%): 0.9%
- Content (%) ([2]; 40° C./75% RH, Day 90, Table 18): 97.5%
- Total impurity (%) ([2]; 40° C./75% RH, Day 90, sum of impurities > 0.05%): 1.0%
- Content (%) ([2]; 60° C., Day 5, Table 18): 97.8%
- Total impurity (%) ([2]; 60° C., Day 5, sum of impurities > 0.05%): 0.8%
- Content (%) ([2]; 60° C., Day 10, Table 18): 97.4%
- Total impurity (%) ([2]; 60° C., Day 10, sum of impurities > 0.05%): 0.8%
- Content (%) ([2]; 60° C., Day 30, Table 18): 97.1%
- Total impurity (%) ([2]; 60° C., Day 30, sum of impurities > 0.05%): 0.8%
- Content (%) ([2]; 92.5% RH, Day 5, Table 18): 98.0%
- Total impurity (%) ([2]; 92.5% RH, Day 5, sum of impurities > 0.05%): 0.8%
- Content (%) ([2]; 92.5% RH, Day 10, Table 18): 97.6%
- Total impurity (%) ([2]; 92.5% RH, Day 10, sum of impurities > 0.05%): 0.8%
- Content (%) ([2]; 92.5% RH, Day 30, Table 18): 100.2%
- Total impurity (%) ([2]; 92.5% RH, Day 30, sum of impurities > 0.05%): 0.8%
- Content (%) ([2]; -20° C., Day 0, Table 18): 97.5%
- Total impurity (%) ([2]; -20° C., Day 0, sum of impurities > 0.05%): 0.8%

Compound: COc1cc2nccc(Oc3ccc(NC(=S)NC4CC4)c(Cl)c3F)c2cc1C(N)=O [methane sulfonate]
- Solubility, conclusion in words ([1]; SGF, listed as methanesulfonate salt): good solubility
